Reference: publication PMC9220805, “The 26S Proteasome Switches between ATP-Dependent and -Independent Mechanisms in Response to Substrate Ubiquitination” (Biomolecules, 2022)

Test system: T1, 26S proteasome (WT proteasome)
T1 construct: gene RPT1; native 26S holoenzyme (19S + 20S) purified by 3xFLAG-tagged Rpn11; with Ubiquitin carboxyl-terminal hydrolase RPN11
Test: SDS-PAGE fluorescence degradation assay of Cy5-labelled ubiquitinated substrate
Assay type: biochemical, Saccharomyces cerevisiae
Conditions: 1 mM ATPγS in place of ATP regeneration system; 100 nM proteasome, 20 nM substrate, 5 mM MgCl2, pH 7.5, 30 °C; nonhydrolyzable ATP analog

For `Nc1ncnc2c1ncn2[C@@H]1O[C@H](COP(=O)(O)OP(=O)(O)OP(O)(O)=S)[C@@H](O)[C@H]1O` [ATPγS], the “SDS-PAGE fluorescence degradation assay of Cy5-labelled ubiquitinated substrate” value was “ATPγS considerably slowed degradation of the ubiquitinated-Rpn4-containing substrate”.
